Biological target: T1, hVR1 (Homo sapiens, UniProt Q8NER1)
T1 construct: expressed in transfected cells; host or cells: HEK293
Assay: Human VR1 (hVR1) Functional Assay (FLIPR intracellular calcium, capsaicin challenge)
Type: cell-based
Conditions: capsaicin 0.030 μM, HEK293 cells expressing hVR1; for inhibition at 1 µM: test concentration 1 μM

T1 sequence (Q8NER1 whole entry): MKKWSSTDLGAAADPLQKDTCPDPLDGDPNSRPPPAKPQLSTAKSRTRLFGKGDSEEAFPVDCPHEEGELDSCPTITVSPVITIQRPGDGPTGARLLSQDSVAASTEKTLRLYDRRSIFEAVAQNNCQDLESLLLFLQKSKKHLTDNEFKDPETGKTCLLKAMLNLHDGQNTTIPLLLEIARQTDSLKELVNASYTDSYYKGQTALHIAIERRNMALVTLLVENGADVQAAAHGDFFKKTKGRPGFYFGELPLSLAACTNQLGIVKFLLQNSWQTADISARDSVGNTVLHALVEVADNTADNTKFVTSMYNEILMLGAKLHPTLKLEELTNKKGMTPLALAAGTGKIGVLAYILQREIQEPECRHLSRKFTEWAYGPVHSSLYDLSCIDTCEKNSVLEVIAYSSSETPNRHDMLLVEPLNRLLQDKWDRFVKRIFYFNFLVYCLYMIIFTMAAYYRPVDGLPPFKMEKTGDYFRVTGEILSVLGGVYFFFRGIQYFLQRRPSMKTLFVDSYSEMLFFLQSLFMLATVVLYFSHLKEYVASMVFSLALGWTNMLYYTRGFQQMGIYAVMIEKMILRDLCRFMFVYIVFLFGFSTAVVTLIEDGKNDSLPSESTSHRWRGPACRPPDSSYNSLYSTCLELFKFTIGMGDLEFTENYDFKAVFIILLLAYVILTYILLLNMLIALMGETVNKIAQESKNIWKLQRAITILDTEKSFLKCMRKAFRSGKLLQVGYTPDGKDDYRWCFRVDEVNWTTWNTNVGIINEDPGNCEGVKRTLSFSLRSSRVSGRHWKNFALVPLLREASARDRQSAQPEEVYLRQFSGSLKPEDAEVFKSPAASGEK

| SMILES | inhibition at 1 µM | IC50 |
| --- | --- | --- |
| CC(C)(C)NS(=O)(=O)c1ccccc1-c1ccc2[nH]c(/C=C/c3ccc(C(F)(F)F)cc3)nc2c1 [Cpd 309, (E)-N-tert-butyl-2-{2-[2-(4-trifluoromethyl-phenyl)-vinyl]-1H-benzimidazol-5-yl}-benzenesulfonamide] | 73% |  |
| CC(=O)Nc1ccccc1-c1ccc2[nH]c(/C=C/c3ccc(SC(F)(F)F)cc3)nc2c1 [Cpd 37, (E)-N-(2-{2-[2-(4-trifluoromethylsulfanyl-phenyl)-vinyl]-1H-benzimidazol-5-yl}-phenyl)-acetamide] | 18% |  |
| CNS(=O)(=O)c1ccccc1-c1ccc2[nH]c(/C=C/c3cccc(Cl)c3F)nc2c1 [Cpd 335, (E)-2-{2-[2-(3-chloro-2-fluoro-phenyl)-vinyl]-1H-benzimidazol-5-yl}-N-methyl-benzenesulfonamide] | 100% | 47 nM |
| CC(O)c1ccccc1-c1ccc2[nH]c(/C=C/c3ccc(C(F)(F)F)cc3)nc2c1 (stereo not drawn) [Cpd 16, (E)-1-(2-{2-[2-(4-trifluoromethyl-phenyl)-vinyl]-1H-benzimidazol-5-yl}-phenyl)-ethanol] | 100% | 45 nM |
| CC(C)(C)c1ccc(/C=C/c2nc3cc(-c4ccccc4N)ccc3[nH]2)cc1 [Cpd 11, (E)-2-{2-[2-(4-tert-butyl-phenyl)-vinyl]-1H-benzimidazol-5-yl}-phenylamine] | 100% | 210 nM |
| NC(=O)c1ccccc1-c1cc2nc(/C=C/c3ccc(C(F)(F)F)cc3)[nH]c2cc1F [Cpd 63, (E)-2-{6-fluoro-2-[2-(4-trifluoromethyl-phenyl)-vinyl]-1H-benzimidazol-5-yl}-benzamide] | 97% | 260 nM |
| CC(=O)c1ccccc1-c1cc2nc(/C=C/c3ccc(C(F)(F)F)cc3)[nH]c2cc1F [Cpd 62, (E)-1-(2-{6-fluoro-2-[2-(4-trifluoromethyl-phenyl)-vinyl]-1H-benzimidazol-5-yl}-phenyl)-ethanone] | 100% | 200 nM |
| CNS(=O)(=O)c1ccccc1-c1ccc2[nH]c(/C=C/c3cc(F)ccc3F)nc2c1 [Cpd 326, (E)-2-{2-[2-(2,5-difluoro-phenyl)-vinyl]-1H-benzimidazol-5-yl}-N-methyl-benzenesulfonamide] | 89% | 157 nM |
| CS(=O)(=O)c1ccc(/C=C/c2nc3cc(-c4ccccc4S(N)(=O)=O)ccc3[nH]2)cc1 [Cpd 85, (E)-2-{2-[2-(4-methanesulfonyl-phenyl)-vinyl]-1H-benzimidazol-5-yl}-benzenesulfonamide] | 16% |  |
| CC(C)(C)c1ccc(CCc2nc3cc(-c4cccc(O)c4)ccc3[nH]2)cc1 [Cpd 33, 3-{2-[2-(4-tert-butyl-phenyl)-ethyl]-1H-benzimidazol-5-yl}-phenol] |  | 1700 nM |
| Oc1cccc(-c2cc3nc(/C=C/c4ccc(C(F)(F)F)cc4)[nH]c3cc2F)c1 [Cpd 60, (E)-3-{6-fluoro-2-[2-(4-trifluoromethyl-phenyl)-vinyl]-1H-benzimidazol-5-yl}-phenol] | 7% |  |
| Oc1ccccc1-c1cc2nc(/C=C/c3ccc(C(F)(F)F)cc3)[nH]c2cc1F [Cpd 59, (E)-2-{6-fluoro-2-[2-(4-trifluoromethyl-phenyl)-vinyl]-1H-benzimidazol-5-yl}-phenol] | 80% | 440 nM |
| NS(=O)(=O)c1ccccc1-c1ccc2[nH]c(CCc3ccc(OC(F)(F)F)cc3)nc2c1 [Cpd 129, 2-{2-[2-(4-trifluoromethoxy-phenyl)-ethyl]-1H-benzimidazol-5-yl}-benzenesulfonamide] | 96% | 34 nM |
| NC(=O)c1ccccc1-c1ccc2[nH]c(/C=C/c3ccc(OC(F)(F)F)cc3)nc2c1 [Cpd 19, (E)-2-{2-[2-(4-trifluoromethoxy-phenyl)-vinyl]-1H-benzimidazol-5-yl}-benzamide] | 32% |  |
| NS(=O)(=O)c1ccccc1-c1ccc2[nH]c(/C=C/c3ccccc3C(F)(F)F)nc2c1 [Cpd 364, (E)-2-{2-[2-(2-trifluoromethyl-phenyl)-vinyl]-1H-benzimidazol-5-yl}-benzenesulfonamide] | 97% | 65 nM |
| CC(C)(C)c1ccc(/C=C/c2nc3cc(-c4ccccc4F)c(C(F)(F)F)cc3[nH]2)cc1 [Cpd 52, (E)-2-[2-(4-tert-butyl-phenyl)-vinyl]-5-(2-fluoro-phenyl)-6-trifluoromethyl-1H-benzimidazole] | 28% |  |
| CNS(=O)(=O)c1ccccc1-c1ccc2[nH]c(/C=C/c3ccc(F)c(Cl)c3)nc2c1 [Cpd 321, (E)-2-{2-[2-(3-chloro-4-fluoro-phenyl)-vinyl]-1H-benzimidazol-5-yl}-N-methyl-benzenesulfonamide] | 100% | 18 nM |
| CNS(=O)(=O)c1ccccc1-c1ccc2[nH]c(/C=C/c3c(F)cccc3F)nc2c1 [Cpd 327, (E)-2-{2-[2-(2,6-difluoro-phenyl)-vinyl]-1H-benzimidazol-5-yl}-N-methyl-benzenesulfonamide] | 77% | 343 nM |
| CC(C)(C)c1ccc(/C=C/c2nc3cc(-c4ccccc4O)c(C(F)(F)F)cc3[nH]2)cc1 [Cpd 48, (E)-2-{2-[2-(4-tert-butyl-phenyl)-vinyl]-6-trifluoromethyl-1H-benzimidazol-5-yl}-phenol] | 33% |  |
| CNS(=O)(=O)c1ccccc1-c1ccc2[nH]c(/C=C/c3cc(C(F)(F)F)ccc3C(F)(F)F)nc2c1 [Cpd 334, (E)-2-{2-[2-(2,5-bis-trifluoromethyl-phenyl)-vinyl]-1H-benzimidazol-5-yl}-N-methyl-benzenesulfonamide] | 94% | 178 nM |
| O=S(=O)(c1ccc(/C=C/c2nc3cc(-c4ccccc4O)ccc3[nH]2)cc1)C(F)(F)F [Cpd 41, (E)-2-{2-[2-(4-trifluoromethanesulfonyl-phenyl)-vinyl]-1H-benzimidazol-5-yl}-phenol] | 90% | 280 nM |

Further lines, results first:

| inhibition at 1 µM | IC50 | SMILES |
| --- | --- | --- |
| 98% | 7 nM | NS(=O)(=O)c1ccccc1-c1ccc2[nH]c(CCc3ccc(F)c(F)c3F)nc2c1 [Cpd 384, 2-{2-[2-(2,3,4-trifluoro-phenyl)-ethyl]-1H-benzimidazol-5-yl}-benzenesulfonamide] |
| 93% | 15 nM | NS(=O)(=O)c1ccccc1-c1ccc2[nH]c(CCc3ccc(F)cc3)nc2c1 [Cpd 420, 2-{2-[2-(4-fluoro-phenyl)-ethyl]-1H-benzimidazol-5-yl}-benzenesulfonamide] |
| 100% | 9 nM | CC(C)(O)c1ccccc1-c1ccc2[nH]c(/C=C/c3ccc4ncccc4c3)nc2c1 [Cpd 449, (E)-2-{2-[2-(2-quinolin-6-yl-vinyl)-1H-benzimidazol-5-yl]-phenyl}-propan-2-ol] |
| 98% | 97 nM | COC(=O)Nc1ccccc1-c1ccc2[nH]c(/C=C/c3ccc(C(F)(F)F)cc3)nc2c1 [Cpd 462, (E)-(2-{2-[2-(4-trifluoromethyl-phenyl)-vinyl]-1H-benzimidazol-5-yl}-phenyl)-carbamic acid methyl ester] |
|  | > 500 nM | OCc1ccccc1-c1ccc2[nH]c(C3CC3c3ccc(C(F)(F)F)cc3)nc2c1 (stereo not drawn) [Cpd 474, (2-{2-[2-(4-trifluoromethyl-phenyl)-cyclopropyl]-1H-benzimidazol-5-yl}-phenyl)-methanol] |
| 100% | 11 nM | CS(=O)(=O)Nc1ccccc1-c1ccc2[nH]c(/C=C/c3ccc(C(F)(F)F)c(F)c3)nc2c1 [Cpd 417, (E)-N-(2-{2-[2-(3-fluoro-4-trifluoromethyl-phenyl)-vinyl]-1H-benzimidazol-5-yl}-phenyl)-methanesulfonamide] |
|  | > 500 nM | CC(=O)Nc1ccccc1-c1ccc2[nH]c(/C=C/c3ccc(C(F)(F)F)cc3)nc2c1 [Cpd 478, (E)-N-(2-{2-[2-(4-trifluoromethyl-phenyl)-vinyl]-1H-benzimidazol-5-yl}-phenyl)-acetamide] |
| 42% |  | O=S(=O)(c1ccc(/C=C/c2nc3cc(-c4ccccc4C(F)(F)F)ccc3[nH]2)cc1)C(F)(F)F [Cpd 481, (E)-2-[2-(4-trifluoromethanesulfonyl-phenyl)-vinyl]-5-(2-trifluoromethyl-phenyl)-1H-benzimidazole] |
| 97% | 24 nM | NS(=O)(=O)c1ccccc1-c1ccc2[nH]c(/C=C/c3ccc(Cl)cc3Cl)nc2c1 [Cpd 437, (E)-2-{2-[2-(2,4-dichloro-phenyl)-vinyl]-1H-benzimidazol-5-yl}-benzenesulfonamide] |
| 93% | 10 nM | CC(C)(O)c1ccccc1-c1ccc2[nH]c([C@H]3C[C@@H]3c3ccc(C(F)(F)F)cc3)nc2c1 [Cpd 503, 2-(2-{2-[(1S,2S)-2-(4-trifluoromethyl-phenyl)-cyclopropyl]-1H-benzimidazol-5-yl}-phenyl)-propan-2-ol] |
| 82% | 240 nM | CN(C)c1ccc(/C=C/c2nc3cc(-c4ccccc4NS(C)(=O)=O)ccc3[nH]2)cc1 [Cpd 413, (E)-N-(2-{2-[2-(4-dimethylamino-phenyl)-vinyl]-1H-benzimidazol-5-yl}-phenyl)-methanesulfonamide] |
| 22% |  | CC(=O)Nc1ccccc1-c1ccc2[nH]c(CCc3ccc(C(F)(F)F)cc3)nc2c1 [Cpd 457, N-(2-{2-[2-(4-trifluoromethyl-phenyl)-ethyl]-1H-benzimidazol-5-yl}-phenyl)-acetamide] |
| 99% | 23 nM | NS(=O)(=O)c1ccccc1-c1ccc2[nH]c(CCc3ccccc3)nc2c1 [Cpd 397, 2-(2-phenethyl-1H-benzimidazol-5-yl)-benzenesulfonamide] |
| 99% | 17 nM | NS(=O)(=O)c1ccccc1-c1ccc2[nH]c(/C=C/c3ccccc3Cl)nc2c1 [Cpd 365, (E)-2-{2-[2-(2-chloro-phenyl)-vinyl]-1H-benzimidazol-5-yl}-benzenesulfonamide] |
| 99% | 54 nM | NS(=O)(=O)c1ccccc1-c1ccc2[nH]c(CCc3cc(C(F)(F)F)ccc3C(F)(F)F)nc2c1 [Cpd 388, 2-{2-[2-(2,5-bis-trifluoromethyl-phenyl)-ethyl]-1H-benzimidazol-5-yl}-benzenesulfonamide] |
